Reference: patent US20230089867A1, “CYCLIC PENTAMER COMPOUNDS AS PROPROTEIN CONVERTASE SUBTILISIN/KEXIN TYPE 9 (PCSK9) INHIBITORS FOR THE TREATMENT OF METABOLIC DISORDER” (Novartis AG, priority 2018, published 2023)

Biological target: human PCSK9 (Homo sapiens, UniProt Q8NBP7)
Assay: PCSK9 ligand binding TR-FRET assay (interference with binding of human PCSK9 to human LDLR)
Conditions: for Max % inhibition: PCSK9 FRET assay, efficacy (Amax), 100% = 1 uM unlabeled human PCSK9, 0% = DMSO; for IC50: TR-FRET, human PCSK9 Alexa Fluor 647 / human LDLR extracellular domain-Europium Kryptate, read-out: PCSK9 FRET Assay IC50
Procedure, shortened: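 Threefold compound dilutions were pre-incubated 30 min with PCSK9, after which 4 nM Europium Kryptate-tagged human LDLR ectodomain was added for a further 2 h.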

Sequence of human PCSK9 (Q8NBP7 153-692): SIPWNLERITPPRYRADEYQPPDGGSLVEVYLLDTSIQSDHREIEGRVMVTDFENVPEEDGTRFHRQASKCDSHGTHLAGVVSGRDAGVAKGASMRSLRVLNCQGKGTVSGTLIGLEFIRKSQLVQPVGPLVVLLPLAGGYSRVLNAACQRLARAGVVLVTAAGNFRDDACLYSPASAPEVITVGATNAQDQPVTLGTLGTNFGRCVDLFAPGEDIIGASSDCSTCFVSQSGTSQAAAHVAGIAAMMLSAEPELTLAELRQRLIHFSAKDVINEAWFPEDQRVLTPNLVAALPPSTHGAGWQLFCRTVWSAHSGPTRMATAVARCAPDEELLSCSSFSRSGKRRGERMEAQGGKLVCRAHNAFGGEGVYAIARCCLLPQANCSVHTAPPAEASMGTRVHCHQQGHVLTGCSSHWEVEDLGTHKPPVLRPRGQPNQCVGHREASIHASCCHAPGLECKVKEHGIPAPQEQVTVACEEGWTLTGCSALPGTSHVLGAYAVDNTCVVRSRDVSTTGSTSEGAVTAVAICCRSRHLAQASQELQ
Sequence of human PCSK9 (Q8NBP7 31-152 partner limits assumed): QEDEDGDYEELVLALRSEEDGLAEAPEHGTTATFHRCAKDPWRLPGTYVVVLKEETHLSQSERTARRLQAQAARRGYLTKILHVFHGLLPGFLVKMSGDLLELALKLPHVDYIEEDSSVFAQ

Row | Compound | Max % inhibition | IC50
1 | COC[C@@H]1NC(=O)[C@H](CO)N(Cc2ccc(Cl)cc2Oc2ccc(-c3cnc(CN(C)C)n3C)cc2)C(=O)C[C@@H](Cc2ccccc2)C(=O)N(C)[C@@H](C)CNC(=O)C[C@H](Cc2ccc(Cl)cc2)N(C)C1=O [Compound 11, (2S,5S,8S,13S,16R)-16-benzyl-1-(4-chloro-2-(4-(2-((dimethylamino)methyl)-1-methyl-1H-imidazol-5-yl)phenoxy)benzyl)-8-(4-chlorobenzyl)-2-(hydroxymethyl)-5-(methoxymethyl)-7,13,14-trimethyl-1,4,7,11,14-pentaazacyclooctadecane-3,6,10,15,18-pentaone] | 105.07% | 2.6 nM
2 | CCc1ccc(CN2C(=O)C[C@@H](Cc3ccccc3)C(=O)N(C)[C@H]3CCCC[C@@H]3NC(=O)C[C@H](Cc3ccc(Cl)cc3)N(C)C(=O)[C@H](COC)NC(=O)[C@@H]2C)c(Oc2ccc(-c3cnc(CN4CCCC4)n3C)cc2)c1 [Compound 223, (4S,7S,10S,14R,16aS,20aS)-14-benzyl-4-(4-chlorobenzyl)-11-(4-ethyl-2-(4-(1-methyl-2-(pyrrolidin-1-ylmethyl)-1H-imidazol-5-yl)phenoxy)benzyl)-7-(methoxymethyl)-5,10,16-trimethylhexadecahydrobenzo[l][1,4,7,11,14]pentaazacyclooctadecine-2,6,9,12,15(3H)-pentaone] | 100.16% | 1.8 nM
3 | COC[C@@H]1NC(=O)[C@H](C)N(Cc2ccc(Cl)cc2Oc2ccc(-c3cnc(CN(C)C)n3C)cc2)C(=O)C[C@@H](Cc2ccccc2)C(=O)N(C)[C@@H](C)[C@H](C)NC(=O)C[C@H](Cc2ccc(Cl)cc2)N(C)C1=O [Compound 186, (2S,5S,8S,12S,13S,16R)-16-benzyl-1-(4-chloro-2-(4-(2-((dimethylamino)methyl)-1-methyl-1H-imidazol-5-yl)phenoxy)benzyl)-8-(4-chlorobenzyl)-5-(methoxymethyl)-2,7,12,13,14-pentamethyl-1,4,7,11,14-pentaazacyclooctadecane-3,6,10,15,18-pentaone] | 103.39% | 0.6 nM
4 | COC[C@@H]1NC(=O)[C@H](C)N(Cc2ccc(Cl)cc2Oc2ccc(-n3cnc([C@@H](C)N(C)C)c3C)cc2)C(=O)C[C@@H](Cc2ccccc2)C(=O)N(C)[C@@H](C)[C@H](C)NC(=O)C[C@H](Cc2ccc(Cl)cc2)N(C)C1=O [Compound 270, (2S,5S,8S,12S,13S,16R)-16-benzyl-1-(4-chloro-2-(4-(4-((R)-1-(dimethylamino)ethyl)-5-methyl-1H-imidazol-1-yl)phenoxy)benzyl)-8-(4-chlorobenzyl)-5-(methoxymethyl)-2,7,12,13,14-pentamethyl-1,4,7,11,14-pentaazacyclooctadecane-3,6,10,15,18-pentaone] | 106.63% | 2.7 nM
5 | COC[C@@H]1NC(=O)[C@H](C)N(Cc2c(Oc3ccc(-c4cnc(CN(C)C)n4C)cc3)cccc2OC(F)F)C(=O)CCC(=O)N(C)[C@H]2CCCC[C@@H]2NC(=O)C[C@H](Cc2ccc(Cl)cc2)N(C)C1=O [Compound 196, (4S,7S,10S,16aS,20aS)-4-(4-chlorobenzyl)-11-(2-(difluoromethoxy)-6-(4-(2-((dimethylamino)methyl)-1-methyl-1H-imidazol-5-yl)phenoxy)benzyl)-7-(methoxymethyl)-5,10,16-trimethylhexadecahydrobenzo[l][1,4,7,11,14]pentaazacyclooctadecine-2,6,9,12,15(3H)-pentaone] | 97.92% | 3 nM
6 | COC[C@@H]1NC(=O)[C@H](C)N(Cc2ccc(Cl)cc2Oc2ccc(-c3cnc(CN4CCCC4)n3C)cc2)C(=O)C[C@@H](Cc2ccccc2)C(=O)N(C)[C@@H]2CCOC[C@H]2NC(=O)C[C@H](Cc2ccc(Cl)cc2)N(C)C1=O [Compound 14, (4S,7S,10S,14R,16aR,20aS)-14-benzyl-11-(4-chloro-2-(4-(1-methyl-2-(pyrrolidin-1-ylmethyl)-1H-imidazol-5-yl)phenoxy)benzyl)-4-(4-chlorobenzyl)-7-(methoxymethyl)-5,10,16-trimethyltetradecahydro-1H-pyrano[3,4-l][1,4,7,11,14]pentaazacyclooctadecine-2,6,9,12,15(3H)-pentaone] | 93.84% | 307 nM
7 | CCN(CC)Cc1cn(-c2ccc(Oc3cc(Cl)ccc3CN3C(=O)C[C@@H](Cc4ccccc4)C(=O)N(C)[C@@H](C)CNC(=O)C[C@H](Cc4ccc(Cl)cc4)N(C)C(=O)[C@H](COC)NC(=O)[C@@H]3C)cc2)nn1 [Compound 120, (2S,5S,8S,13S,16R)-16-benzyl-1-(4-chloro-2-(4-(4-((diethylamino)methyl)-1H-1,2,3-triazol-1-yl)phenoxy)benzyl)-8-(4-chlorobenzyl)-5-(methoxymethyl)-2,7,13,14-tetramethyl-1,4,7,11,14-pentaazacyclooctadecane-3,6,10,15,18-pentaone] | 48.04% | 23.6 nM
8 | COC[C@@H]1NC(=O)[C@H](C)N(Cc2ccc(Cl)cc2Oc2ccc(-n3cnc(CN4CC5(COC5)C4)c3C)cc2)C(=O)C[C@@H](Cc2ccccc2)C(=O)N(C)[C@@H](C)CNC(=O)C[C@H](Cc2ccc(Cl)cc2)N(C)C1=O [Compound 112, (2S,5S,8S,13S,16R)-1-(2-(4-(4-(2-oxa-6-azaspiro[3.3]heptan-6-ylmethyl)-5-methyl-1H-imidazol-1-yl)phenoxy)-4-chlorobenzyl)-16-benzyl-8-(4-chlorobenzyl)-5-(methoxymethyl)-2,7,13,14-tetramethyl-1,4,7,11,14-pentaazacyclooctadecane-3,6,10,15,18-pentaone] | 107.46% | 3.2 nM
9 | C[C@@H]1CC(=O)N(Cc2ccc(Cl)cc2Oc2ccc(-c3cnc(CN(C)C)n3C)cc2)[C@@H](C)C(=O)N[C@@H](CO)C(=O)N(C)[C@@H](Cc2ccc(Cl)cc2)CC(=O)N[C@H]2CCCC[C@@H]2N(C)C1=O [Compound 164, (4S,7S,10S,14R,16aS,20aS)-11-(4-chloro-2-(4-(2-((dimethylamino)methyl)-1-methyl-1H-imidazol-5-yl)phenoxy)benzyl)-4-(4-chlorobenzyl)-7-(hydroxymethyl)-5,10,14,16-tetramethylhexadecahydrobenzo[l][1,4,7,11,14]pentaazacyclooctadecine-2,6,9,12,15(3H)-pentaone] | 80.18% | 3.6 nM
10 | COC[C@@H]1NC(=O)[C@H](C)N(Cc2ccc(Cl)cc2Oc2ccc(-c3cnc(CN(C)C)n3C)cc2)C(=O)C[C@@H](Cc2c(F)c(F)cc(F)c2F)C(=O)N(C)[C@@H](C)CNC(=O)C[C@H](Cc2ccc(Cl)cc2)N(C)C1=O [Compound 246, (2S,5S,8S,13S,16R)-1-(4-chloro-2-(4-(2-((dimethylamino)methyl)-1-methyl-1H-imidazol-5-yl)phenoxy)benzyl)-8-(4-chlorobenzyl)-5-(methoxymethyl)-2,7,13,14-tetramethyl-16-(2,3,5,6-tetrafluorobenzyl)-1,4,7,11,14-pentaazacyclooctadecane-3,6,10,15,18-pentaone] | 103.97% | 2.4 nM
